Patent US12478594B2, “Methods of treatment of kidney injury associated with infection or trauma” (University of Pittsburgh—Of the Commonwealth System of …, priority 2019, dated 2025)

Tests used:
[1] = system: hemin treated kidney organoids; assay: Hemin-induced injury of kidney organoids: collagen hybridizing peptide (CHP) staining; assay type: cell-based, human; details: 25 μM hemin two days, then 10 days with 1 μM, 3 μM, and 9 μM compound
Protocol: A simple bioreactor-based method for growing renal organoids for long periods of time is provided, resulting in tissue with a high degree of maturation. Hemin-induced acute kidney injury produced by the oxidation of the heme of hemoglobin and myoglobin, causing oxidative stress and inflammation. […] These observations indicate that the kidney organoid model of AKI provides a valuable new platform to validate novel compounds in the setting of human AKI.
Organoids were prepared essentially as described in Przepiorski A, Sander V, Tran T, Hollywood J A, Sorrenson B, Shih J H, Wolvetang E J, McMahon A P, Holm™ and Davidson A J. A Simple Bioreactor-Based Method to Generate Kidney Organoids from Pluripotent Stem Cells. Stem Cell Reports. 2018; 11:470-484. As shown in FIG. 8 (A), induced pluripotent stem cells (iPSCs) were cultured for three 3 days in with 8 μM of the Wnt agonist CHIR-99021 (CHIR, e.g., 6-[[2-[[4-(2,4-dichlorophenyl)-5-(5-methyl-1H-imidazol-2-yl)-2-pyrimidinyl]amino]ethyl] amino]-3-pyridinecarbonitrile) in BPEL (BSA poly(vinyl alcohol) essential lipids)), and were then cultured for an additional 11 days in DMEM with Knockout™ Serum Replacement (KOSR). At 14 days, DMEM F12 medium containing 25 μM Hemin (Sigma, H9039) is applied for two days, followed by 10 days with 1 μM, 3 μM, and 9 μM UPHD186 in DMEM with 10% KOSR. UPHD25 was evaluated in the same manner. […]

[2] = system: IL6; assay: CLP sepsis-associated AKI model: circulating cytokine IL6 (ELISA); assay type: in vivo, Balb/c mice; details: early and delayed treatment regimens
Excerpt: (§1) Balb/c mice (20-24 weeks old, male and female, Charles River Labs) were used. Mice were subjected to cecal ligation and puncture surgery (CLP) in accordance with methods reported by Rittirsch et al. (Rittirsch D, Huber-Lang M S, Flierd M A, Ward P A: Immunodesign of experimental sepsis by cecal ligation and puncture. Nature protocols 2009, 4(1):31-36). Specifically, Sepsis was induced by ligating 1 cm length of the cecum from the apex and two punctures with a 25-Gauge needle. Animals in the sham group had only laparotomy without any cecal punctures. Post-surgery treatment included 40 mL/kg Ringer's solution after surgery, and ceftriaxone (25 mg/kg), metronidazole (12.5 mg/kg), and buprenorphine (0.05 mg/kg), every 12 hours administered intraperitoneally (i.p.) for 3 days. Septic animals were randomly divided into four groups to receive a seven-day UPHD186 (50 mg/kg/day, i.p.) or vehicle (20% Cyclodextrin-2% DMSO in PBS, i.p.) treatment, starting from 48 hours or 96 hours post-CLP. To determine treatment efficacy, time-serial blood samples (approx. 10 μL) were collected through animals' saphenous vein on the days before/after the treatment session. All mice were followed for survival and sacrificed at the 3rd day post-treatment or the endpoint day 14 to collect kidneys and blood samples. […]

[3] = system: F4/80+ mononuclear cells in the kidneys; assay: CLP sepsis-associated AKI model: kidney monocytes and their phenotype (immunofluorescence), day 3 post-treatment; assay type: in vivo, Balb/c mice; details: for F4/80+ cell numbers in the kidneys: 50 mg/kg/day i.p.
Excerpt: (§2) Balb/c mice (20-24 weeks old, male and female, Charles River Labs) were used. Mice were subjected to cecal ligation and puncture surgery (CLP) in accordance with methods reported by Rittirsch et al. (Rittirsch D, Huber-Lang M S, Flierd M A, Ward P A: Immunodesign of experimental sepsis by cecal ligation and puncture. Nature protocols 2009, 4(1):31-36). Specifically, Sepsis was induced by ligating 1 cm length of the cecum from the apex and two punctures with a 25-Gauge needle. Animals in the sham group had only laparotomy without any cecal punctures. Post-surgery treatment included 40 mL/kg Ringer's solution after surgery, and ceftriaxone (25 mg/kg), metronidazole (12.5 mg/kg), and buprenorphine (0.05 mg/kg), every 12 hours administered intraperitoneally (i.p.) for 3 days. Septic animals were randomly divided into four groups to receive a seven-day UPHD186 (50 mg/kg/day, i.p.) or vehicle (20% Cyclodextrin-2% DMSO in PBS, i.p.) treatment, starting from 48 hours or 96 hours post-CLP. To determine treatment efficacy, time-serial blood samples (approx. 10 μL) were collected through animals' saphenous vein on the days before/after the treatment session. All mice were followed for survival and sacrificed at the 3rd day post-treatment or the endpoint day 14 to collect kidneys and blood samples.
(§3) The left kidney was flushed with 10 mL ice-cold PBS, 10 mL 10% formalin through the left ventricle immediately after euthanasia, and the kidney was collected. For immunofluorescence staining, half of the kidney was fixed in 10% formalin for 2 h on ice, incubated in 30% (vol/vol) sucrose at 4° C. overnight, snap frozen in OCT (Sakura FineTek), and cut into 7-μm sections. Sections were treated with heated citrate (Antigen Unmasking Solution, Vector Laboratories), blocked in 10% (vol/vol) normal goat serum (Vector Laboratories) in 0.3M glycine-PBST for 1 h RT, incubated with primary antibodies at 4° C. overnight, and then corresponding secondary antibodies (Jackson ImmunoResearch) in PBS containing 10% of the blocking solution for 1 h RT. Stained sections were mounted in mounting Medium with DAPI (Vectashield H-1000, Vector Laboratories), and stored at −20° C. until observed under confocal microscopy (Fluoview 1000, Olympus). Three washes with PBST were performed between each step. The primary antibodies were: goat anti-ICAM (R&D Systems), rabbit anti-Col1 (Novus Biologicals), rabbit anti-fibronectin (Abcam), rabbit anti-vimentin (Abcam), rat anti-F4/80 (Abcam), rabbit anti-iNOS (Abcam), and phalloidin (Thermo Fisher Scientific) was used for staining of the brush-boarder. For immunohistochemistry analysis, the infused kidney was fixed in 10% formalin at 4° C. overnight, embedded in paraffin, and cut into 5-μm sections. Hematoxylin & eosin and Masson's trichrome stain were performed. Semiquantitative renal histology injury scoring was assessed by an investigator blinded to group assignment and the percentage of fibrosis per area was quantified using ImageJ (https://imagej.nih.gov/ij/; National Institutes of Health).
Kidney samples collected at day 3 post-treatment were examined for presence numbers of monocytes in the kidney and their phenotypes (monocytes: F4/80^+, M1: F4/80^+iNOS^+, M2: F4/80^+MR^+).

[4] = system: IGFBP7; assay: CLP sepsis-associated AKI model: renal IGFBP7 expression, day 14; assay type: in vivo, Balb/c mice
Excerpt: as §2
The left kidney was flushed with 10 mL ice-cold PBS, 10 mL 10% formalin through the left ventricle immediately after euthanasia, and the kidney was collected. For immunofluorescence staining, half of the kidney was fixed in 10% formalin for 2 h on ice, incubated in 30% (vol/vol) sucrose at 4° C. overnight, snap frozen in OCT (Sakura FineTek), and cut into 7-μm sections. […] Semiquantitative renal histology injury scoring was assessed by an investigator blinded to group assignment and the percentage of fibrosis per area was quantified using ImageJ (https://imagej.nih.gov/ij/; National Institutes of Health).
Renal expression/location of the kidney stress marker insulin-like growth factor-binding protein 7 (IGFBP7) was measured at Day-14 kidneys. […]

[5] = system: septic mice (cecal ligation and puncture); assay: CLP sepsis-associated AKI model: sepsis survival to day 14; assay type: in vivo, Balb/c mice; details: 50 mg/kg/day i.p. 7 days
Excerpt: as §1, with “post-CLP.” for “post-CLP. To determine treatment efficacy, time-serial blood samples (approx. 10 μL) were collected through animals' saphenous vein on the days before/after the treatment session. All mice were followed for survival and sacrificed at the 3rd day post-treatment or the endpoint day 14 to collect kidneys and blood samples.”
Graph and statistical analyses were performed using GraphPad Prism 8 (GraphPad Software). […] Tukey's test was used to determine significance of differences among multiple groups and t test between two groups; survival rates were analyzed using log-rank Mantel-Cox test. […]

[6] = system: renal mRNA of inflammation, kidney injury, matrix remodeling, cell cycle, proliferation and fibrosis genes; assay: CLP sepsis-associated AKI model: renal mRNA expression (quantitative PCR); assay type: in vivo, Balb/c mice
Excerpt: as §2
Total tissue RNA was isolated using TRIzol™ reagent (Life Technologies), DNase kit (Invitrogen), and converted into complementary DNA with High-Capacity cDNA Reverse Transcription Kits (Applied Biosystems). Quantitative polymerase chain reaction was performed on a Mx3000PTM system (Agilent Technologies) using primers (Table 1) and SYBR® Select Master Mix (2×) (Applied Biosystems). The expression of each target gene was assayed in duplicate and presented as fold change normalized by that of the endogenous control gene, gapdh expression.
Kidney samples were examined at mRNA levels for genes controlling inflammation (nfκb, ccl20, traf1, traf2, icam), kidney injury (kim1), and matrix remodeling markers (lox, loxl1). Septic animals had higher levels of gene expression compared to sham controls (FIG. 4). […] (FIG. 3D).
Kidney samples on day 14 (following CLP) were examined for mRNA levels for treatment effects on cell cycle regulation (cdkn1a), proliferation (ki67), and pro-fibrosis genes (plod2, fsp1, col1a1). Septic animals had higher levels of fsp1 and col1a1 expressions compared to sham controls (FIG. 7). Early treatment with UPHD186 further increased fsp1 (fold-increase, 3.3±1.3 vs. corresponding CLP+vehicle controls 2.2±1.1, P<0.05), whereas delayed treatment promoted ki67 and inhibited col1a1 expression (fold-increase, ki67: 1.6±0.7 vs. corresponding controls 1.0±0.5, P<0.01; col1a1, 2.2±0.9 vs. 3.7±2.4, P<0.05) (FIG. 5C). Thus, pro-fibrotic gene expression was increased in the recovery phase and early treatment further aggravated these changes; whereas delayed treatment promoted proliferation and attenuated fibrosis.

[7] = system: renal fibrosis and histology injury; assay: CLP sepsis-associated AKI model: renal histology (Masson's trichrome, hematoxylin & eosin), day 14; assay type: in vivo, Balb/c mice
Excerpt: as §2
as §3, with “The primary antibodies were: goat anti-ICAM (R&D Systems), rabbit anti-Col1 (Novus Biologicals), rabbit anti-fibronectin (Abcam), rabbit anti-vimentin (Abcam), rat anti-F4/80 (Abcam), rabbit anti-iNOS (Abcam), and phalloidin (Thermo Fisher Scientific) was used for staining of the brush-boarder. For immunohistochemistry analysis, the infused kidney was fixed in 10% formalin at 4° C. overnight, embedded in paraffin, and cut into 5-μm sections. Hematoxylin & eosin and Masson's trichrome stain were performed.” left out, “Health). […]” for “Health).”

[8] = CLP sepsis-associated AKI model: circulating creatinine; assay type: in vivo, Balb/c mice; details: early and delayed treatment regimens
Excerpt: as §1

COC(=O)CCCSc1ccccc1 [UPHD25, methyl 4-(phenylsulfanyl)butanoate]
collagen (CHP staining), fibrosis [1]: reduction of collagen

O=C(CCCSc1ccccc1)Nc1ccccc1O [UPHD186, N-(2-hydroxyphenyl)-4-(phenylsulfanyl)butanamide]
circulating cytokine IL6, treatment effect [2]: neither creatinine (FIG. 5B) nor cytokine IL6 (FIG. 6) were affected | collagen (CHP staining), fibrosis [1]: reduced | iNOS expression intensities (M1 marker) ([3]; delayed treatment (96 h post-CLP), CLP vehicle 3.1±1.4): 1.4±0.3 | F4/80+ cell numbers in the kidneys ([3]; delayed treatment (from 96 h post-CLP), CLP vehicle 52.4±32.9): 40.6±24.7 cells/field | MR expression (M2 marker), treatment effect ([3]; early and delayed treatment groups): no treatment effects were observed | iNOS expression intensities (M1 marker) ([3]; early treatment (48 h post-CLP), CLP vehicle 1.2±0.7): 2.7±0.3 | F4/80+ cell numbers in the kidneys ([3]; early treatment (from 48 h post-CLP), CLP vehicle 41.2±26.1): 15.7±7.7 cells/field | overall IGFBP7 renal expression, effect ([4]; delayed treatment, day 14): no such effect | secretory pattern of IGFBP7, effect ([4]; early and delayed treatment regimens, day 14 (data not shown)): neither treatment regimens changed the secretory pattern of IGFBP7 | overall IGFBP7 renal expression ([4]; early treatment, day 14, CLP 396.9±109.0): 674.1±190.5 | survival rate by day 14 ([5]; delayed treatment (96 h), vehicle 39%, P<0.01): 79% | survival rate by day 14 ([5]; early treatment (48 h), vehicle 54%, P=0.32): 69% | inflammation, kidney injury and matrix remodeling marker mRNA (nfκb, ccl20, traf1, traf2, icam, kim1, lox, loxl1), effect ([6]; delayed treatment, day 3 post-treatment, compared to CLP controls): no effect on any marker expressions | ki67 renal mRNA ([6]; delayed treatment, day 14 after CLP, controls 1.0±0.5): 1.6±0.7 fold-increase | col1a1 renal mRNA ([6]; delayed treatment, day 14 after CLP, controls 3.7±2.4): 2.2±0.9 fold-increase | loxl1 renal mRNA ([6]; early treatment, day 3 post-treatment, CLP 10.5±5.7): 5.0±2.3 fold-increase | icam1 renal mRNA ([6]; early treatment, day 3 post-treatment, CLP 25.3±4.1): 9.1±2.3 fold-increase | traf2 renal mRNA ([6]; early treatment, day 3 post-treatment, CLP 32.5±6.9): 12.2±3.0 fold-increase | traf1 renal mRNA ([6]; early treatment, day 3 post-treatment, CLP 51.5±9.1): 17.1±3.6 fold-increase | cdkn1a renal mRNA, effect ([6]; early treatment, day 14 (FIG. 5C)): increased cdkn1a | fsp1 renal mRNA ([6]; early treatment, day 14 after CLP, CLP+vehicle 2.2±1.1): 3.3±1.3 fold-increase | histology injury score ([7]; delayed treatment, vehicle 2.1±1.0, P=0.13): 1.4±1.0 | collagen volume fraction ([7]; delayed treatment, vehicle 26.2±7.6, P=0.08): 21.2±4.8% | histology injury score ([7]; early treatment, CLP vehicle 1.7±0.9): 2.6±1.3 | collagen volume fraction ([7]; early treatment, CLP vehicle 28.4±4.3): 27.6±4.3% | circulating creatinine, treatment effect [8]: neither creatinine (FIG. 5B) nor cytokine IL6 (FIG. 6) were affected
